Measured values as given in PMC10150354, “Linearization of the Brevicidine and Laterocidine Lipopeptides Yields Analogues That Retain Full Antibacterial Activity” (Journal of Medicinal Chemistry, 2023).
Values after ≈ are worked out from the molar mass of the structure shown. Where a SMILES comes first, the peptide text is derived from it. [ ]: non-standard residue; d: D form. The star is where a group is joined. ξ: configuration not given here. Octanoyl(7-Me) = CC(C)CCCCCC(=O)*; Hexanoyl(4ξ-Me) = CCC(C)CCC(=O)*; dOrn = NCCC[C@@H](N)C(=O)O; Orn = NCCC[C@H](N)C(=O)O; Dap = NC[C@H](N)C(=O)O

Assays:
[1] = tested on: E. coli (MCR-1); format: cell-based, Escherichia coli; settings: microbroth dilution per CLSI, MHB, 18 h at 37 °C, visual inspection, three technical replicates, E. coli 25922 carrying mcr-1
Summary of the method: (§1)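 CLSI broth microdilution in MHB, polypropylene plates; log-phase bacteria (OD600 ~0.5, grown in TSB, with kanamycin for the E. coli ATCC 25922 MCR-1 strain) added at 2 × 10^5 CFU/mL. Read visually after 18 h at 37 °C with shaking; MIC = lowest concentration preventing visible growth, three technical replicates.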

[2] = tested on: E. coli ATCC 25922; format: cell-based, Escherichia coli; settings: for Antibacterial activity (MIC) E. coli ATCC 25922: microbroth dilution per CLSI, MHB, 18 h at 37 °C, visual inspection, three technical replicates; for MIC (µg/mL) against E. coli (ATCC 25922): (Supplement 2)
Summary of the method: as §1

[3] = tested on: K. pneumoniae ATCC 13883; format: cell-based, Klebsiella pneumoniae; settings: microbroth dilution per CLSI, MHB, 18 h at 37 °C, visual inspection, three technical replicates
Summary of the method: as §1

[4] = tested on: A. baumannii ATCC 17961; format: cell-based, Acinetobacter baumannii; settings: microbroth dilution per CLSI, MHB, 18 h at 37 °C, visual inspection, three technical replicates
Summary of the method: as §1

[5] = tested on: P. aeruginosa PAO1; format: cell-based, Pseudomonas aeruginosa; settings: microbroth dilution per CLSI, MHB, 18 h at 37 °C, visual inspection, three technical replicates
Summary of the method: as §1

[6] = tested on: S. aureus USA300; format: cell-based, Staphylococcus aureus; settings: microbroth dilution per CLSI, MHB, 18 h at 37 °C, visual inspection, three technical replicates
Summary of the method: as §1

Row | SMILES | Antibacterial activity (MIC) E. coli (MCR-1) [1] [µg/mL] | Antibacterial activity (MIC) E. coli ATCC 25922 [2] [µg/mL] | Antibacterial activity (MIC) K. pneumoniae ATCC 13883 [3] [µg/mL] | Antibacterial activity (MIC) A. baumannii ATCC 17961 [4] [µg/mL] | Antibacterial activity (MIC) P. aeruginosa PAO1 [5] [µg/mL] | Antibacterial activity (MIC) S. aureus USA300 [6] [µg/mL] | MIC (µg/mL) against E. coli (ATCC 25922) [2] [µg/mL]
1 | CCC(C)CCC(=O)N[C@H](CC(N)=O)C(=O)N[C@H](Cc1ccc(O)cc1)C(=O)N[C@H](Cc1c[nH]c2ccccc12)C(=O)N[C@H](CCCN)C(=O)N[C@@H](CCCN)C(=O)NCC(=O)N[C@H](CCCN)C(=O)N[C@@H](Cc1c[nH]c2ccccc12)C(=O)N[C@H](C(=O)N[C@H](C(N)=O)[C@@H](C)CC)[C@@H](C)O (stereo partly drawn) [Δ11–12LB-NH2 (11)] ({Hexanoyl(4ξ-Me)}-[dN][dY][dW][dOrn][Orn]G[dOrn]WTI-NH2) | 4 to 8 | 4 | 2 | 8 | 2 | >32 | 
2 | CC[C@H](C)[C@H](NC(=O)[C@@H](NC(=O)[C@H](Cc1c[nH]c2ccccc12)NC(=O)[C@@H](CCCN)NC(=O)CNC(=O)[C@H](CCCN)NC(=O)[C@@H](CCCN)NC(=O)[C@@H](Cc1c[nH]c2ccccc12)NC(=O)[C@@H](Cc1ccc(O)cc1)NC(=O)[C@@H](CO)NC(=O)CCCCCC(C)C)[C@@H](C)O)C(N)=O [Δ11–13LL-NH2 (12)] ({Octanoyl(7-Me)}-[dS][dY][dW][dOrn][Orn]G[dOrn]WTI-NH2) | 4 | 4 | 2 | 4 | 4 | 32 | 
3 | CCC(C)CCC(=O)N[C@H](CC(N)=O)C(=O)N[C@H](Cc1ccc(O)cc1)C(=O)N[C@H](Cc1c[nH]c2ccccc12)C(=O)N[C@H](CCCN)C(=O)N[C@@H](CCCN)C(=O)NCC(=O)N[C@H](CCCN)C(=O)N[C@@H](Cc1c[nH]c2ccccc12)C(=O)N[C@@H](CC(N)=O)C(=O)N[C@H](C(=O)NCC(N)=O)[C@@H](C)CC (stereo partly drawn) [Δ12LB (Asn9)-NH2 (58)] ({Hexanoyl(4ξ-Me)}-[dN][dY][dW][dOrn][Orn]G[dOrn]WNIG-NH2) | 8 | 8 | 16 | 16 | 2 | >32 | 4 (≈ 2.73 µM)
4 | CCC(C)CCC(=O)N[C@H](CC(N)=O)C(=O)N[C@H](Cc1ccc(O)cc1)C(=O)N[C@H](Cc1c[nH]c2ccccc12)C(=O)N[C@H](CCCN)C(=O)N[C@@H](CCCN)C(=O)NCC(=O)N[C@H](CCCN)C(=O)N[C@@H](Cc1c[nH]c2ccccc12)C(=O)N[C@@H](CC(=O)O)C(=O)N[C@H](C(=O)NCC(N)=O)[C@@H](C)CC (stereo partly drawn) [Δ12LB (Asp9)-NH2 (63)] ({Hexanoyl(4ξ-Me)}-[dN][dY][dW][dOrn][Orn]G[dOrn]WDIG-NH2) | >32 | >32 | >32 | >32 | 4 | >32 | 4 (≈ 2.73 µM)
5 | CCC(C)CCC(=O)N[C@H](CC(N)=O)C(=O)N[C@H](Cc1ccc(O)cc1)C(=O)N[C@H](Cc1c[nH]c2ccccc12)C(=O)N[C@H](CCCN)C(=O)N[C@@H](CCCN)C(=O)NCC(=O)N[C@H](CCCN)C(=O)N[C@@H](Cc1c[nH]c2ccccc12)C(=O)N[C@@H](CN)C(=O)N[C@H](C(=O)NCC(N)=O)[C@@H](C)CC (stereo partly drawn) [Δ12LB (Dap9)-NH2 (64)] ({Hexanoyl(4ξ-Me)}-[dN][dY][dW][dOrn][Orn]G[dOrn]W[Dap]IG-NH2) | 8 | 8 | >32 | 16 | 4 | >32 | >32
